Literature values, collected in patent US5849729A, “Use of hydrolyzed cocoa butter for percutaneous absorption” (Hershey Foods Corporation, priority 1995, dated 1998).
Read-outs that look alike come from different tables or passages of the source.

Conditions: cited from earlier work
[1] = in vivo, topical or ocular, 120 h

C[C@]12CCC(=O)C=C1CC[C@@H]1[C@@H]2CC[C@@]2(C)[C@H]1CC[C@]2(O)C(=O)CO [17-OII DOC]
Absorption Rate 0-12 (in vivo): .041 % hr
Absorption Rate 12-24 (in vivo): .101 % hr
Absorption Rate 24-48 (in vivo): .084 % hr
Absorption Rate 48-72 (in vivo): .076 % hr
Absorption Rate 72-96 (in vivo): .062 % hr
Absorption Rate 96-120 (in vivo): .065 % hr
Total Absorption (T of above) (topical, 0-120 hrs): 8.41 % of the dose

CC(=O)[C@@]1(O)CC[C@H]2[C@@H]3CCC4=CC(=O)CC[C@]4(C)[C@H]3CC[C@@]21C [17-OII Progesterone]
Total Absorption (T of above) (topical, 0-120 hrs): 14.76 % of the dose

C[C@]12CCC(=O)C=C1CC[C@@H]1[C@@H]2CC[C@]2(C)C(=O)CC[C@@H]12 [Androstenedione]
Absorption Rate 0-12 (topical, 0-12 hrs): .183 % hr
Total Absorption (T of above) (topical, 0-120 hrs): 13.47 % of the dose
Absorption Rate 12-24 (topical, 12-24 hrs): .334 % hr
Absorption Rate 24-48 (topical, 24-48 hrs): .155 % hr
Absorption Rate 48-72 (topical, 48-72 hrs): .076 % hr
Absorption Rate 72-96 (topical, 72-96 hrs): .043 % hr
Absorption Rate 96-120 (topical, 96-120 hrs): .028 % hr

C[C@]12C[C@H](O)[C@H]3[C@@H](CCC4=CC(=O)CC[C@@]43C)[C@@H]1CC[C@@H]2C(=O)CO [Corticosterone]
Absorption Rate 0-12 (topical, 0-12 hrs): .013 % hr
Total Absorption (T of above) (topical, 0-120 hrs): 8.78 % of the dose
Absorption Rate 12-24 (topical, 12-24 hrs): .065 % hr
Absorption Rate 24-48 (topical, 24-48 hrs): .139 % hr
Absorption Rate 48-72 (topical, 48-72 hrs): .070 % hr
Absorption Rate 72-96 (topical, 72-96 hrs): .050 % hr
Absorption Rate 96-120 (topical, 96-120 hrs): .039 % hr

C[C@]12CCC(=O)C=C1CC[C@@H]1[C@@H]2C(=O)C[C@@]2(C)[C@H]1CC[C@]2(O)C(=O)CO [Cortisone]
absorption through the skin of closely related corticosteroid compounds (published literature, topical): 1-3 % of the dose
Absorption Rate 0-12 (topical, 0-12 hrs): .015 % hr
Total Absorption (T of above) (topical, 0-120 hrs): 3.38 % of the dose
Absorption Rate 12-24 (topical, 12-24 hrs): .037 % hr
Absorption Rate 24-48 (topical, 24-48 hrs): .039 % hr
Absorption Rate 48-72 (topical, 48-72 hrs): .036 % hr
Absorption Rate 72-96 (topical, 72-96 hrs): .032 % hr
Absorption Rate 96-120 (topical, 96-120 hrs): .024 % hr

C[C@]12CC[C@H](O)CC1=CC[C@@H]1[C@@H]2CC[C@]2(C)C(=O)CC[C@@H]12 [Dehydroepiandrosterone]
Absorption Rate 0-12 (topical, 0-12 hrs): .265 % hr
Total Absorption (T of above) (topical, 0-120 hrs): 18.45 % of the dose
Absorption Rate 12-24 (topical, 12-24 hrs): .446 % hr
Absorption Rate 24-48 (topical, 24-48 hrs): .249 % hr
Absorption Rate 48-72 (topical, 48-72 hrs): .091 % hr
Absorption Rate 72-96 (topical, 72-96 hrs): .046 % hr
Absorption Rate 96-120 (topical, 96-120 hrs): .028 % hr

C[C@]12CC[C@H]3[C@@H](CCC4=CC(=O)CC[C@@]43C)[C@@H]1CC[C@@H]2C(=O)CO [Desoxycorticosterone]
Total Absorption (T of above) [1]: 12.55 % of the dose
Absorption Rate 0-12 (topical, 0-12 hrs): .197 % hr
Absorption Rate 12-24 (topical, 12-24 hrs): .313 % hr
Absorption Rate 24-48 (topical, 24-48 hrs): .143 % hr
Absorption Rate 48-72 (topical, 48-72 hrs): .069 % hr
Absorption Rate 72-96 (topical, 72-96 hrs): .035 % hr
Absorption Rate 96-120 (topical, 96-120 hrs): .020 % hr

C[C@@H]1C[C@H]2[C@@H]3CCC4=CC(=O)C=C[C@]4(C)[C@@]3(F)[C@@H](O)C[C@]2(C)[C@@]1(O)C(=O)CO [Dexamethasone]
Absorption Rate 0-12 (topical, 0-12 hrs): .005 % hr
Total Absorption (T of above) (topical, 0-120 hrs): .40 % of the dose
Absorption Rate 12-24 (topical, 12-24 hrs): .003 % hr
Absorption Rate 24-48 (topical, 24-48 hrs): .004 % hr
Absorption Rate 48-72 (topical, 48-72 hrs): .003 % hr
Absorption Rate 72-96 (topical, 72-96 hrs): .002 % hr
Absorption Rate 96-120 (topical, 96-120 hrs): .002 % hr

C[C@]12CC[C@@H]3c4ccc(O)cc4CC[C@H]3[C@@H]1CC[C@@H]2O [Estradiol]
Total Absorption (T of above) [1]: 10.62 % of the dose
Absorption Rate 0-12 (in vivo): .008 % hr
Absorption Rate 12-24 (in vivo): .056 % hr
Absorption Rate 24-48 (in vivo): .099 % hr
Absorption Rate 48-72 (in vivo): .101 % hr
Absorption Rate 72-96 (in vivo): .107 % hr
Absorption Rate 96-120 (in vivo): .103 % hr

CC1(C)O[C@@H]2C[C@H]3[C@@H]4C[C@H](F)C5=CC(=O)C=C[C@]5(C)[C@@]4(F)[C@@H](O)C[C@]3(C)[C@]2(C(=O)CO)O1 [Flucinoione Acetonide, fluocinolone acetonide]
Absorption Rate 0-12 (in vivo): .002 % hr
Absorption Rate 12-24 (in vivo): .011 % hr
Absorption Rate 24-48 (in vivo): .012 % hr
Absorption Rate 48-72 (in vivo): .016 % hr
Absorption Rate 72-96 (in vivo): .008 % hr
Absorption Rate 96-120 (in vivo): .005 % hr
absorption through the skin of closely related corticosteroid compounds (published literature, topical): 1-3 % of the dose
Total Absorption (T of above) (topical, 0-120 hrs): 1.34 % of the dose

CC(=O)OCC(=O)[C@@]1(O)CC[C@H]2[C@@H]3CCC4=CC(=O)CC[C@]4(C)[C@H]3[C@@H](O)C[C@@]21C [Hydrocortisone Acetate]
Total Absorption (T of above) [1]: 2.55 % of the dose
absorption through the skin of closely related corticosteroid compounds (in vivo, topical or ocular): 1-3 % of the dose
Absorption Rate 0-12 (in vivo): .020 % hr
Absorption Rate 12-24 (in vivo): .089 % hr
Absorption Rate 24-48 (in vivo): .032 % hr
Absorption Rate 48-72 (in vivo): .024 % hr
Absorption Rate 72-96 (in vivo): .015 % hr
Absorption Rate 96-120 (in vivo): .008 % hr

C[C@]12CCC(=O)C=C1CC[C@@H]1[C@@H]2[C@@H](O)C[C@@]2(C)[C@H]1CC[C@]2(O)C(=O)CO [Hydrocortisone]
Total Absorption (T of above) [1]: 1.87 % of the dose
absorption through the skin of closely related corticosteroid compounds (in vivo, topical or ocular): 1-3 % of the dose
Absorption Rate 0-12 (in vivo): .005 % hr
Absorption Rate 12-24 (in vivo): .023 % hr
Absorption Rate 24-48 (in vivo): .019 % hr
Absorption Rate 48-72 (in vivo): .018 % hr
Absorption Rate 72-96 (in vivo): .016 % hr
Absorption Rate 96-120 (in vivo): .010 % hr

CC(=O)[C@H]1CC[C@H]2[C@@H]3CCC4=CC(=O)CC[C@]4(C)[C@H]3CC[C@]12C [Progesterone]
Total Absorption (T of above) [1]: 10.81 % of the dose
Absorption Rate 0-12 (in vivo): .208 % hr
Absorption Rate 12-24 (in vivo): .264 % hr
Absorption Rate 24-48 (in vivo): .135 % hr
Absorption Rate 48-72 (in vivo): .045 % hr
Absorption Rate 72-96 (in vivo): .024 % hr
Absorption Rate 96-120 (in vivo): .011 % hr

CC(=O)O[C@H]1CC[C@H]2[C@@H]3CCC4=CC(=O)CC[C@]4(C)[C@H]3CC[C@]12C [Testosterone Acetate]
Absorption Rate 0-12 (topical, 0-12 hrs): .103 % hr
Total Absorption (T of above) (topical, 0-120 hrs): 4.62 % of the dose
Absorption Rate 12-24 (topical, 12-24 hrs): .133 % hr
Absorption Rate 24-48 (topical, 24-48 hrs): .048 % hr
Absorption Rate 48-72 (topical, 48-72 hrs): .015 % hr
Absorption Rate 72-96 (topical, 72-96 hrs): .007 % hr
Absorption Rate 96-120 (topical, 96-120 hrs): .004 % hr

CCC(=O)O[C@H]1CC[C@H]2[C@@H]3CCC4=CC(=O)CC[C@]4(C)[C@H]3CC[C@]12C [Testosterone Propionate]
Absorption Rate 0-12 (topical, 0-12 hrs): .061 % hr
Total Absorption (T of above) (topical, 0-120 hrs): 3.44 % of the dose
Absorption Rate 12-24 (topical, 12-24 hrs): .096 % hr
Absorption Rate 24-48 (topical, 24-48 hrs): .035 % hr
Absorption Rate 48-72 (topical, 48-72 hrs): .015 % hr
Absorption Rate 72-96 (topical, 72-96 hrs): .009 % hr
Absorption Rate 96-120 (topical, 96-120 hrs): .005 % hr

C[C@]12CC[C@H]3[C@@H](CCC4=CC(=O)CC[C@@]43C)[C@@H]1CC[C@@H]2O [Testosterone]
Absorption Rate 0-12 (topical, 0-12 hrs): .147 % hr
Total Absorption (T of above) (topical, 0-120 hrs): 13.24 % of the dose
Absorption Rate 12-24 (topical, 12-24 hrs): .364 % hr
Absorption Rate 24-48 (topical, 24-48 hrs): .156 % hr
Absorption Rate 48-72 (topical, 48-72 hrs): .066 % hr
Absorption Rate 72-96 (topical, 72-96 hrs): .036 % hr
Absorption Rate 96-120 (topical, 96-120 hrs): .018 % hr
